Several values for one entry are separate records, joined by “and”; a condition that tells them apart may be missing. Equal values may be shown once.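 Results reflect a 48-hour exposure of cells in 96-well plates to compound at five concentrations. The concentration for 50% growth inhibition is given as GI50. TGI: concentration producing complete growth inhibition.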
Assays:
Test in all cases: DTP human tumour cell line panel, 48 h
A498 renal = test system: A498 renal
MALME-3M melanoma = test system: MALME-3M melanoma
MDA-MB-435 = test system: MDA-MB-435
NCI-H460 lung = test system: NCI-H460 lung
SF-268 CNS = test system: SF-268 CNS
SK-MEL-28 melanoma = test system: SK-MEL-28 melanoma
SN12C renal = test system: SN12C renal
SNB-75 CNS = test system: SNB-75 CNS
TK-10 renal = test system: TK-10 renal
UO-31 renal = test system: UO-31 renal

Row | Structure (SMILES) | GI50 (A498 renal) [µM] | TGI (A498 renal) | GI50 (MALME-3M melanoma) | TGI (MALME-3M melanoma) | GI50 (MDA-MB-435) | TGI (MDA-MB-435) [µM] | GI50 (NCI-H460 lung) | TGI (NCI-H460 lung) [µM] | GI50 (SF-268 CNS) | TGI (SF-268 CNS) | GI50 (SK-MEL-28 melanoma) [µM] | TGI (SK-MEL-28 melanoma) | GI50 (SN12C renal) | TGI (SN12C renal) | GI50 (SNB-75 CNS) | TGI (SNB-75 CNS) | GI50 (TK-10 renal) | TGI (TK-10 renal) | GI50 (UO-31 renal) | TGI (UO-31 renal)
1 | NC(=O)c1ccc2nc(-c3ccc(C4(N)CCC4)cc3)c(-c3ccccc3)n2n1 | 0.0734 | 0.642 µM | 1.19 µM | 19.7 µM | 11.8 µM | 24.4 | 2.15 µM | 19.4 | 13.1 µM | 30.1 µM | 10.9 | 23.7 µM | 12 µM | 27.5 µM | 0.0922 µM | 5.21 µM | 2.85 µM | 27.8 µM | 0.409 µM | 13.5 µM
2 | S=c1nc[nH]c2nc[nH]c12 | 104 | 584 µM and 187 µM | 5.28 µM | > 100 µM and 298 µM and > 750 µM | 0.61 µM | > 750 | 4.74 µM | > 730 | 12.3 µM | > 100 µM and 681 µM and > 750 µM | 79.2 | > 750 µM | – | > 100 µM and 680 µM and > 750 µM | – | > 100 µM and 402 µM and > 621 µM | 58 µM and 10.2 µM | > 100 µM and 549 µM and 332 µM | 4.1 µM and 5.55 µM | > 100 µM and 619 µM
3 | COc1cc(/C=C/C(=O)NC[C@]2(O)CCC3C4CCc5cc(O)ccc5C4CCC32C)ccc1O (some centres not stated) | 74.1 | > 100 µM | 3.5 µM | 42.3 µM | 4.46 µM | 37.5 | 9.47 µM | > 100 | 96.1 µM | > 100 µM | 33.9 | > 100 µM | 25.4 µM | > 100 µM | 42.5 µM | > 100 µM | 2.76 µM | 14.4 µM | 4.93 µM | 49.3 µM
4 | COc1ccc2[nH]c3c(C)c4cc[n+](C)cc4c(C)c3c2c1 | – | 51.9 µM [middle of 4 runs] | 0.624 µM and 2.38 µM | – | 13.4 µM and 5.86 µM | > 88.3 | 0.402 µM and 0.998 µM | – | 0.0504 µM and 0.0385 µM | – | 3.07 | 10.8 µM [middle of 4 runs] | 0.0483 µM and 0.0691 µM | 797 nM [middle of 4 runs] | 0.158 µM and 0.324 µM | 801 nM [middle of 4 runs] | 12.4 µM and 24.3 µM and 5.65 µM | 89.2 µM and > 163 µM | 13.6 µM and 15.6 µM | –
5 | COc1nc2c(cc1S(=O)(=O)c1ccccc1)CCc1c-2cnn1Cc1ccccc1 | 2.7 | > 100 µM | 24.4 µM | > 100 µM | > 100 µM | > 100 | 7.06 µM | > 100 | > 100 µM | > 100 µM | > 100 | > 100 µM | > 100 µM | > 100 µM | 20 µM | > 100 µM | > 100 µM | > 100 µM | 4.3 µM | > 100 µM
6 | CNS(=O)(=O)c1ccccc1C(=N)c1ccccc1 | – | > 100 µM | – | > 100 µM | – | > 100 | – | > 100 | – | > 100 µM | – | > 100 µM | – | > 100 µM | – | > 100 µM | – | > 100 µM | – | > 100 µM
7 | O=C(Nc1ccc(Cl)cc1F)c1cc(F)ccc1O | 0.251 | 0.98 µM | 0.41 µM | 2.27 µM | 0.626 µM | 5.51 | 0.647 µM | 13.5 | 0.854 µM | 12.1 µM | 0.485 | 2.63 µM | 0.643 µM | 5.64 µM | 0.39 µM | 6.16 µM | 4.69 µM | 23.1 µM | 0.314 µM | 3.38 µM
8 | C[n+]1c2cc(N)ccc2cc2ccc(N)cc21 (tested in a mixture with another compound) | 0.133 | 0.515 µM | 0.258 µM | 1.04 µM | 0.615 µM | 2.1 | 0.269 µM | – | 0.265 µM | 1.29 µM | 1.33 | 7.48 µM | 0.326 µM | 1.75 µM | 0.314 µM | 1.38 µM | 1.04 µM | 7.49 µM | 0.106 µM | 0.598 µM
9 | CC(C)[C@](O)(C(=O)OCC1=CC[N+]2([O-])CC[C@@H](O)[C@@H]12)[C@H](C)O (some centres not stated) | – | > 10000 µM | – | > 10000 µM | – | > 10000 | – | > 9540 | – | > 10000 µM | – | > 10000 µM | – | > 10000 µM | – | > 10000 µM | – | > 10000 µM | – | > 10000 µM
10 | COc1ccc2[nH]c(-c3ccccc3)c(C=C(C#N)C#N)c2c1 | 2.01 | 6.22 µM | 4.41 µM | > 100 µM | 0.607 µM | 4.68 | 3.56 µM | > 100 | 8.27 µM | > 100 µM | 4.44 | > 100 µM | 4.67 µM | > 100 µM | 2.76 µM | 21.2 µM | 5.07 µM | > 100 µM | 6.43 µM | > 100 µM
11 | C=CC(=O)NCCOc1cccc(Nc2cc(NCCCNC(=O)C3CCC3)c(Br)cn2)c1 | 0.52 | 1.8 µM | 1.46 µM | 6.43 µM | 2.49 µM | 6.03 | 1.12 µM | 4.53 | 0.482 µM | 3.73 µM | 1.64 | 8.78 µM | 0.623 µM | > 25 µM | 0.252 µM | 1.38 µM | 1.6 µM | 7.77 µM | 0.372 µM | 1.11 µM
12 | Cc1cc(Nc2cc(CN3CCOCC3)c3nc(C)c(Cc4ccc(Cl)cc4F)n3n2)n[nH]1 | 0.288 | 1.1 µM | 4.35 µM | 20.6 µM | 0.694 µM | 19.6 | 0.437 µM | 6.63 | 1.03 µM | 4.65 µM | 3.5 | 17.2 µM | 1.14 µM | 15.9 µM | 0.433 µM | 2.4 µM | 2.14 µM | 6.61 µM | 1.41 µM | 2.97 µM
13 | OC(COc1cccc2ccccc12)CN1CCN(c2ccc(Cl)cc2)CC1 (configuration not stated) | 21.3 | 92 µM | 22.5 µM | 64.7 µM | 38.8 µM | > 100 | 15.7 µM | > 100 | 19.1 µM | 45.5 µM | 26.9 | 71.6 µM | 51 µM | > 100 µM | 9.76 µM | 27.1 µM | 10.1 µM | 26.5 µM | 15.5 µM | 36.1 µM
14 | COc1cc(-c2nc3ccccc3[nH]2)ccc1OCC(=O)N=Nc1c(O)[nH]c2ccc(Cl)cc12 | 2.18 | 5.42 µM | 1.53 µM | 2.93 µM | 1.43 µM | 2.76 | 1.15 µM | 2.84 | 1.66 µM | 3.34 µM | 1.81 | 3.22 µM | 1.61 µM | 3.06 µM | 1.19 µM | 2.64 µM | 2.58 µM | 5.77 µM | 52.3 µM | > 100 µM
15 | COc1cc(OC)cc(-c2ccc(-c3ccc(C(=N)N)s3)s2)c1 | 1.46 | 3.05 µM | 1.25 µM | 3.28 µM | 0.271 µM | 0.991 | 0.482 µM | 1.79 | 1.67 µM | 3.42 µM | 1.52 | 3.51 µM | 1.74 µM | 4.32 µM | 1.22 µM | 2.5 µM | 1.84 µM | 3.39 µM | 1.51 µM | 3.31 µM
16 | CC(N)(Cc1c[nH]c2ccccc12)C(=O)O (configuration not stated) | > 2500 | > 2500 µM | 522 µM | > 2500 µM | > 2500 µM | > 2500 | > 2500 µM | > 2500 | > 2500 µM | > 2500 µM | > 2500 | > 2500 µM | > 2500 µM | > 2500 µM | > 2500 µM | > 2500 µM | > 2500 µM | > 2500 µM | > 2500 µM | > 2500 µM
17 | Cc1ccc(Nc2[nH]c(C(=O)c3ccc(Cl)cc3)c(N)c2C(=S)Nc2ccccc2)nc1 | 23.4 | 61.8 µM | 13.7 µM | 42 µM | 23 µM | 96.3 | 23.9 µM | > 100 | 32.7 µM | > 100 µM | 55.2 | > 100 µM | 18.5 µM | 37.9 µM | 79.3 µM | > 100 µM | 28.1 µM | > 100 µM | 24.3 µM | 86.1 µM

Reference: PubChem BioAssay (NCI)
